One may read the logP as the decadic logarithm of the partition coefficient of the neutral form, usually between octanol and water. `COc1ccc(-c2cc3ccccn3c2)cc1`: the logP stood at 4.2. Next, `c1ccn2cccc2c1`: 2.49; `c1ccc(-c2cc3ccccn3c2)cc1`: 4.29; `Cc1ccc(-c2cc3ccccn3c2)cc1`: 4.96. With `Clc1cccc(-c2cc3ccccn3c2)c1` the figure was 5.14. Next, `Cc1cccc(-c2ccc3cccn3c2)c1`: 4.87; `Brc1ccc(-c2cc3ccccn3c2)cc1`: 5.43; `COc1cccc(-c2cc3ccccn3c2)c1`: 4.14. In turn, `Brc1cccc(-c2cc3ccccn3c2)c1` had a logP of 5.31.

The molecule `Clc1ccc(-c2cc3ccccn3c2)cc1` gave a logP of 5.2.

The values are drawn from the SangsterLogP compilation.
